Tests used:
sAC^FF mouse melanocytes [1] = assay: DAMP melanosome pH assay (HMB45 co-staining); assay type: cell-based; details: sAC^FF mouse melanocytes; for melanosome pH (DAMP uptake at HMB45 positive melanosomes), substance alone: 4 hours, KH7 30 μM, cAMP 500 μM, H89 10 μM, PKI 10 μM, ESI-09 10 μM
Experimental: (§1) N-{3-[(2,4-dinitrophenyl)amino]propyl}-N-(3-aminopropyl)methylamine dihydrochloride (DAMP) is a weakly basic amine that is taken up in acidic organelles of live cells and which has been used to measure melanosome pH (Bin et al., PLOS One, 10(6):e0129273 (2015); Tabata et al., Cell Tissue Res., 332(3): 447-460 (2008)). Cells were cultured on sterile glass coverslips in 24-mm wells at 50×10^3 cells/coverslip. […] After permeabilization with 0.1% Triton X-100 in Buffer A at −20° C., the cells were labeled with the supplied anti-DNP antibody (Oxford Biomedical Research) according to kit protocol. Melanosomes were identified using the monoclonal antibody (anti-HMB45, 1:40, Santa Cruz Biotechnology). Fluorescence was detected after secondary staining with Alexa Fluor 546 donkey anti-goat IgG antibody (Invitrogen) and Alexa Fluor 647 donkey anti-mouse IgG antibody (Invitrogen). All quantitative analyses were performed using the Object Count tool in Nikon AR 4.60. For each image, the lower intensity threshold limit of each fluorescence channel was defined as the intensity of the dimmest punctum returned using the 3 points circle threshold tool. The upper intensity threshold limit was set to the maximum value. Equivalent diameter (EqDiameter) was restricted to 1.85-30.00 pixels. Circularity was restricted to 0.20-1.00. Mean fluorescence intensity was measured for all DAMP^+ puncta. Melanosomes were identified as HMB45^+ puncta. DAMP measurements were only recorded when colocalized with HMB45. Frequency distributions were generated for each sample from mean DAMP fluorescence intensity of DAMP^+ melanosomes. All analyses were performed on two replicate coverslips (n≥15 cells per coverslip). Melanosomes were first identified as TRP1^+ or tyrosinase^+ puncta. sAC^+ melanosomes were identified as R52^+ or R21^+ puncta colocalizing with TRP1^+ or tyrosinase^+ puncta. The degree of colocalization between sAC and melanosomes was calculated as the number of sAC+ melanosomes divided by the total number of melanosomes and expressed as a percentage.
(§2) The effect of pharmacologic inhibition of sAC was also measured using the DAMP assay described above. Briefly, Cells were cultured on sterile glass coverslips in 24-mm wells at 50×10^3 cells/coverslip and treated or not treated for 4 hours with 30 μM KH7 or LRE1. […] After permeabilization with 0.1% Triton X-100 in Buffer A at −20° C., the cells were labeled with the supplied anti-DNP antibody (Oxford Biomedical Research) according to kit protocol. Melanosomes were identified using the monoclonal antibody (anti-HMB45, 1:40, Santa Cruz Biotechnology). Fluorescence was detected after secondary staining with Alexa Fluor 546 donkey anti-goat IgG antibody (Invitrogen) and Alexa Fluor 647 donkey anti-mouse IgG antibody (Invitrogen). All images were acquired using a Zeiss LSM 880 and analyzed using NIS-Elements AR 4.60 (Nikon).

sAC^KO mouse melanocytes [2] = assay: DAMP melanosome pH assay (HMB45 co-staining); assay type: cell-based; details: 4 hours; for melanosome pH (DAMP), substance alone: KH7 30 μM, cAMP analogs 500 μM, ESI-09 10 μM, MSH 100 nM; for effect on cAMP-dependent rescue of melanosome pH (DAMP): co-incubation with cAMP [Sp-8-CPT-cAMPs], 10 μM
Experimental: as §1, §2

human melanocytes [3] = assay: DAMP melanosome pH assay (HMB45 co-staining); assay type: cell-based; details: for melanosome pH (DAMP), substance alone: 4 hours, KH7 30 μM, cAMP 500 μM, H89 10 μM, ESI-09 10 μM
Experimental: as §1
The effect of sAC inhibition on melanosome pH was also assessed in human melanocytes.

human melanocytes [4] = assay: Cellular eumelanin content; assay type: cell-based; details: 48 hours, KH7 30 μM, ESI-09 10 μM
Experimental: (§3) FIGS. 15A-15J provide the results of experiments analyzing the effect of sAC activity on melanin production. FIG. 15A is a graph illustrating the cellular eumelanin and pheomelanin content in sAC^FF (FF) and sAC^KO (KO) mouse melanocytes. Numbers above bars represent the ratio of pheomelanin to eumelanin. Average of triplicate determinations. FIG. 15B is a graph illustrating the cellular eumelanin content of sAC^FF and sAC^KO mouse melanocytes grown for 96 hours in the absence (−, DMSO) or presence of KH7 (+, 30 μM). Average of triplicate determinations. FIG. 15C is a graph illustrating the fold over baseline cellular eumelanin level of human melanocytes (n=8) treated with KH7 (30 μM) or vehicle (DMSO) for 48 hours. All assays performed in triplicate. Students t-test **P<0.01, ****P<0.0001. FIG. 15D is images of cell pellets of sAC^FF and sAC^KO mouse melanocytes. FIG. 15E is a graph of the melanin levels of pairs of sAC^FF and sAC^KO mouse melanocytes. FIGS. 15F and 15G are images of cell pellets of sAC^FF mouse melanocytes grown in the absence (DMSO, FIGS. 15G and 15F, left panels) or presence of KH7 (FIG. 15G, 30 μM, right panel) or LRE1 (FIG. 15F, 50 μM, right panel) for 96 hours. FIG. 15H is images of cell pellets of human melanocytes (C226, C38) treated with vehicle control (DMSO, left) or KH7 (30 μM, right) for 48 hours. FIG. 15I is images of cell pellets of human melanocytes (C226) treated with vehicle control (DMSO, left) or ESl-09 (10 μM, right) for 48 hours. FIG. 15J is a graph illustrating the fold over baseline cellular (eumelanin) level of human melanocytes treated with ESl-09 (10 μM) or vehicle (DMSO) for 48 hours (n=3, distinct human cell lines). For FIGS. 15E and 15J Students t-test, *p<0.05, **p<0.01, ****p<0.0001.

PKA targeted proteins = assay: Western blot of PKA substrate phosphorylation; assay type: cell-based; details: mouse and human melanocytes, 4 hours
C3H/HeJ mice [5] = assay: Topical treatment of epilated back skin, hair pigmentation; assay type: in vivo, mouse
Experimental: Therefore, experiments were performed to determine whether inhibition of sAC in animals could alter hair pigmentation. Animal experiments were performed in accordance with approved Institutional Animal Care and Use Committee protocol at Weill Cornell Medicine. Age and gender matched C3H/HeJ mice (female, 7 weeks old) were purchased from The Jackson Laboratory. For the analysis of hair pigmentation, the upper and lower dorsum of each mouse were epilated using hair removal wax. 10 μl of KH7 (42 mg/ml in DMSO), LRE1 (28 mg/ml in DMSO) or DMSO (vehicle control) was topically applied onto the upper back and DMSO was applied to the lower back three times a day over two weeks. These mice were monitored for changes in coat color as the epilated hair grew back. Hair was removed from each treated area after 3 weeks to measure the length of the total hair, apical black tip and subapical agouti (pheomelanin) band under a stereo microscope. Mice were euthanized and the treated skin was submitted to a blinded animal pathologist for histological evaluation of the epidermis and hair follicles. This experiment was performed twice with 3-4 mice per cohort (total n=6-7)

sAC^FF mouse melanocytes [6] = assay: Cellular eumelanin content; assay type: cell-based; details: KH7 30 μM or LRE1 50 μM, 96 hours
Experimental: as §3

sAC^KO mouse melanocytes [7] = assay: Cellular eumelanin content; assay type: cell-based; details: 96 hours
Experimental: as §3

sAC^FF mouse melanocytes [8] = assay: LysoSensor Yellow/Blue DND-160 organelle pH assay; assay type: cell-based; details: 30 μM, 4 hours
Experimental: (§4) To determine the pH of the sAC^KO and sAC^FF melanocytes the pH-sensitive vital dye LysoSensor Yellow/Blue DND-160 (Bellono et al. Sci Rep., 6:26570 (2016)) was used. Briefly, cells were incubated with 1 μM LysoSensor DND-160 (Invitrogen) for 5 minutes at 37° C. Lysosensor was excited at 405 nm and its emission detected at 417-483 nm (W1) and 490-530 nm (W2). The ratio of emissions (W1/W2) in Lysosensor-stained puncta was assigned to a pH value based on a calibration curve generated for each experiment using solutions containing 125 mM KCl, 25 mM NaCl, 24 μM monensin, and varying concentrations of MES to adjust the pH to 4, 4.5, 5.0, 5.5, 6.0, 6.5, 7.0, 7.5. The fluorescence ratio was linear for pH 5.0-7.0.
as §4, with “The effect” for “To determine the pH”, “pharmacologic inhibition of sAC was examined using” for “the sAC^KO and sAC^FF melanocytes”, “vial” for “vital”, “assay, described above.” for “(Bellono et al. Sci Rep., 6:26570 (2016)) was used.”, “Briefly, cultured sAC^FF melanocytes were treated for 4 hours with 30 μM KH7, 30 μM LRE1, or control (untreated). The” for “Briefly,”

sAC^KO mouse melanocytes [9] = assay: LysoSensor Yellow/Blue DND-160 organelle pH assay; assay type: cell-based; details: 30 μM, 4 hours
Experimental: as §4
as §4, with “The effect” for “To determine the pH”, “pharmacologic inhibition of sAC was examined using” for “the sAC^KO and sAC^FF melanocytes”, “vial” for “vital”, “assay, described above.” for “(Bellono et al. Sci Rep., 6:26570 (2016)) was used.”, “Briefly, cultured sAC^FF melanocytes were treated for 4 hours with 30 μM KH7, 30 μM LRE1, or control (untreated). The” for “Briefly,”

C3H/HeJ mice [10] = assay: Topical treatment of ear, epidermal pigmentation (Fontana Masson); assay type: in vivo, mouse; details: topical on right ear, twice a day for two weeks
Experimental: Melanocytes also exist in the epidermis at specific areas of mouse skin (e.g., pinnae) (Nordlund et al., Dermatol Clin., 4(3): 407-418 (1986)); thus, these areas were studied to examine the role of sAC in epidermal pigmentation. For analysis of epidermal pigmentation, using C3H/HeJ mice as above, 20 μl of KH7 ([…]), LRE1 (28 mg/ml) or DMSO (vehicle control) was topically applied on the right ear and DMSO was topically applied on the left ear twice a day for two weeks. Ear skin was monitored daily for irritation and changes in pigmentation. After two weeks, mice were euthanized and the treated skin was submitted to a blinded animal pathologist for histological evaluation of the epidermis and special stains (Fontana Masson). This experiment was performed twice with 3 mice per cohort (total n=6)

[11] = co-incubation with 30 μM KH7, 4 hours, cAMP analogs 500 μM, MSH 100 nM
[12] = topical on back, hair removed after 3 weeks

## CO[C@H]1C2OP(=O)(O)OC[C@H]2O[C@H]1n1c(Sc2ccc(O)cc2)nc2c(N)ncnc21 (stereo partly shown) [8-pHPT-2′-O-Me-cAMP, 8-(4-Hydroxyphenylthio)-2′-O-methyladenosine-3′, 5′-cyclic monophosphate]
sAC^FF mouse melanocytes [1]; [11]
  effect on KH7-induced alkaline shift in melanosome pH (DAMP): mitigate the KH7-induced alkalization of melanosome pH
sAC^KO mouse melanocytes [2]
  melanosome pH (DAMP), substance alone: sufficient to induce melanosome acidification
Human melanocytes [3]; [11]
  effect on KH7-induced alkaline shift in melanosome pH (DAMP): mitigate the KH7-induced alkalization of melanosome pH

## CC(C)(C)c1cc(C(=O)C(C#N)=NNc2cccc(Cl)c2)no1 [ESI-09, 3-(5-tert-butyl-isoxazol-3-yl)-2-((3-chlorophenyl)-hydrazono)-3-oxo-propionitrile]
sAC^FF mouse melanocytes [1]
  melanosome pH (DAMP uptake at HMB45 positive melanosomes), substance alone: elevated melanosome pH
sAC^KO mouse melanocytes [2]
  melanosome pH (DAMP), substance alone: had no effect on melanosome pH
Human melanocytes [4]
  eumelanin level: induced an increase in eumelanin level
Human melanocytes [3]
  melanosome pH (DAMP), substance alone: elevated melanosome pH

## O=S(=O)(NCCNC/C=C/c1ccc(Br)cc1)c1cccc2cnccc12 [H89]
sAC^FF mouse melanocytes [1]
  melanosome pH (DAMP uptake at HMB45 positive melanosomes), substance alone: had no effect on melanosome pH
sAC^KO mouse melanocytes [2]
  effect on cAMP-dependent rescue of melanosome pH (DAMP): did not block the cAMP-dependent rescue of melanosome pH
PKA targeted proteins
  phosphorylation of PKA targeted proteins: dramatic reduction in the phosphorylation of PKA targeted proteins
Human melanocytes [3]
  melanosome pH (DAMP), substance alone: had no effect on melanosome pH

## C[C@@H]1C[C@@H]([C@H](O)CC2CC(=O)NC(=O)C2)C(=O)[C@@H](C)C1 [cycloheximide]
sAC^KO mouse melanocytes [2]
  effect on cAMP-dependent rescue of melanosome pH (DAMP): did not block the ability of cAMP to rescue pH following sAC inhibition

## LRE1
C3H/HeJ mice [5]; [12]
  eumelanin production in hair (microscopic examination): increase in eumelanin production
  length of the agouti (pheomelanin) band: reduction in length of the agouti (pheomelanin) band
C3H/HeJ mice [5]; topical on back, two weeks
  histologic examination of treated skin: did not reveal any pathological change to the hair follicles or epidermis
C3H/HeJ mice [5]; topical on epilated back, 10 μl KH7 42 mg/ml or LRE1 28 mg/ml in DMSO, three times a day over two weeks
  colour of regrown hair versus vehicle control: visual darkening of regrown hair
sAC^FF mouse melanocytes [6]
  eumelanin levels: increased eumelanin levels
sAC^KO mouse melanocytes [7]
  eumelanin levels: had no effect
sAC^FF mouse melanocytes [8]
  pH of LysoSensor-visualized organelles: induced an alkaline pH shift
sAC^KO mouse melanocytes [9]
  pH of LysoSensor-visualized organelles: had no effect
C3H/HeJ mice [10]; 20 μl KH7 or LRE1 (28 mg/ml)
  colour of ear epidermis relative to vehicle control: induced visual darkening of mouse ear epidermis
C3H/HeJ mice [10]
  epidermal melanin accumulation (Fontana Masson): increase in epidermal melanin accumulation
